Results on twelve molecules are retold here after US20260274814A1, “THIENYL COMPOUNDS FOR THE TREATMENT OF A CENTRAL NERVOUS SYSTEM DISEASE OR DISORDER” (Coreterra Therapeutics, Inc., priority 2023, published 2026).

The test deals with mice. The test can be described thus: Neuropharmacological Assay (SmartCube): automated behavioral signature of compound-treated mice compared with a database of reference drug classes. In kind it is in vivo. The following applies: for minimal effective dose: Mus musculus, ip; for minimal effective dose / MED (minimal effective dose) / MED: i.p., that dose is shown. In a few lines:
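Mice dosed i.p. 15 min before SmartCube testing, with compound in N-methyl-2-pyrrolidone/polyethylene glycol/propylene glycol. Video-captured behaviour is compared with a reference-drug signature database to give per-class probabilities, reported at 3.0 mg/kg. MED, from doses usually 0.3–10 mg/kg, is the lowest dose giving ≥45% total activity.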

Where [1] appears, read: dose having 45% or more total activity in SmartCube, if only one dose was tested, read-out: MED (minimal effective dose).
Setting [2] is: probability that activity matches this class of agents, 3.0 mg/kg i.p., 15 min before test.
The mark [3] stands for this setting: SmartCube probability class, 3.0 mg/kg dose, i.p. 15 min before the behavioral test.
Where [4] appears, read: minimal effective dose: dose having 45% or more total activity in SmartCube, if only one dose tested, read-out: MED.
[5] abbreviates: SmartCube class probability, 3.0 mg/kg i.p., 15 min before test.
The mark [6] stands for this setting: SmartCube class probability, 3.0 mg/kg i.p., 15 min before test, hydrochloride, 3 mg/kg.
Setting [7] is: probability that activity matches this class of agents, 3.0 mg/kg i.p., 15 min before test, 3 mg/kg.
Where [8] appears, read: probability that activity matches this class of agents, 3.0 mg/kg i.p., 15 min before test, hydrochloride, 3 mg/kg.

Molecules are shown by their SMILES. Counter-ions that a name gives are not always drawn. Like-named read-outs stand apart in the source and are kept apart here.

Take `CN(C)C1(C)CCc2cscc2C1` (single isomer, unassigned) [Compound 121, N,N, 5-trimethyl-6,7-dihydro-4H-2-benzothiophen-5-amine hydrochloride]: the minimal effective dose under setting [1] was 3 mg/kg. Besides, under setting [2], the AD result is on record as “ND (^ <4%)”, the AG result is “ND (^ <4%)”, the AN result is “ND (^ <4%)” and the AP entry is recorded as “+ (≥4%)”. Also, under setting [2], the AX entry is reported as “+ (≥4%)”, the CE entry is “ND (^ <4%)”, the HL entry is given as “ND (^ <4%)” and the MS entry was “ND (^ <4%)”. Under setting [2], the PS result is given as “ND (^ <4%)”, the SH result was “ND (^ <4%)” and the UK result was “+++ (≥49%)”.

Consider `CNC1COc2scc(C#N)c2C1` (stereo not drawn) [Compound 322, 3-(methylamino)-3,4-dihydro-2H-thieno[2,3-b]pyran-5-carbonitrile hydrochloride], for which the minimal effective dose (minimal effective dose: dose having 45% or more total activity in SmartCube, if only one dose was tested, read-out: MED) was 3 mg/kg. In addition, under setting [3], the AD entry is “ND (^ <4%)”, the AG entry was “ND (^ <4%)”, the AN result is “ND (^ <4%)” and the AP result is “+++ (≥49%)”. Moreover, under setting [3], the AX result is “ND (^ <4%)”, the CE result is “ND (^ <4%)”, the HL result is “ND (^ <4%)” and the MS entry is “ND (^ <4%)”. Under setting [3], the PS result is “ND (^ <4%)”, the SH result is recorded as “ND (^ <4%)” and the UK entry is on record as “++ (≥24%)”.

For the molecule `Cc1cc2c(s1)CC(N(C)C)CC2.Cl` (single isomer, unassigned) [Compound 34, N,N, 2-trimethyl-4,5,6,7-tetrahydrobenzothiophen-6-amine hydrochloride], the minimal effective dose under setting [1] was found to be 10 mg/kg. Also, under setting [2], the AD result was “ND (^ <4%)”, the AG entry was “ND (^ <4%)”, the AN entry was “ND (^ <4%)” and the AP entry was “ND (^ <4%)”. Further, under setting [2], the AX result is given as “ND (^ <4%)”, the CE entry is “ND (^ <4%)”, the HL result is given as “ND (^ <4%)” and the MS result is given as “ND (^ <4%)”. Also, under setting [2], the PS result is “ND (^ <4%)”, the SH result is “ND (^ <4%)” and the UK entry is given as “++ (≥24%)”.

As to `CN(C)C1CCc2sc(Cl)cc2C1` (stereo not drawn) [Compound 189, 2-chloro-N, N-dimethyl-4,5,6,7-tetrahydrobenzothiophen-5-amine hydrochloride], the minimal effective dose under setting [4] was greater than 3 mg/kg. Under setting [5], the AD result is listed as “ND (^ <4%)”, the AG result is given as “ND (^ <4%)”, the AN entry is reported as “ND (^ <4%)” and the AP entry is on record as “ND (^ <4%)”. In addition, under setting [5], the AX result is “ND (^ <4%)”, the CE result was “ND (^ <4%)”, the HL entry is listed as “ND (^ <4%)” and the MS entry was “ND (^ <4%)”. Under setting [5], the PS entry is reported as “ND (^ <4%)”, the SH entry was “ND (^ <4%)” and the UK entry is given as “++ (≥24%)”.

In the case of `CNC1(C)CCc2c(csc2C)C1` (single isomer, unassigned) [Compound 149, N, 1,5-trimethyl-6,7-dihydro-4H-2-benzothiophen-5-amine hydrochloride], the minimal effective dose under setting [4] is 3 mg/kg. For the same molecule, under setting [5], the AD result is “ND (^ <4%)”, the AG result was “ND (^ <4%)”, the AN result is “ND (^ <4%)” and the AP entry is “ND (^ <4%)”. Under setting [5], the AX entry is “ND (^ <4%)”, the CE result is listed as “ND (^ <4%)”, the MS result is on record as “ND (^ <4%)” and the SH result is reported as “ND (^ <4%)”. Besides, the UK result under setting [5] is reported as “ND (^ <4%)”. In addition, under setting [6], the HL result is recorded as “+ (≥4%)” and the PS entry is listed as “++++ (≥74%)”.

With `CNC1CCc2cc(Cl)sc2C1` (stereo not drawn) [Compound 96, 2-chloro-N-methyl-4,5,6,7-tetrahydrobenzothiophen-6-amine hydrochloride], under setting [1], the minimal effective dose amounted to 3 mg/kg. Under setting [2], the AD entry was “ND (^ <4%)”, the AG entry is recorded as “ND (^ <4%)”, the AN entry is listed as “ND (^ <4%)” and the AP entry is listed as “+++ (≥49%)”. Under setting [2], the AX entry is given as “ND (^ <4%)”, the CE result is on record as “ND (^ <4%)”, the HL entry is reported as “ND (^ <4%)” and the MS result is listed as “ND (^ <4%)”. For the same molecule, under setting [2], the PS result is listed as “ND (^ <4%)”, the SH entry is reported as “ND (^ <4%)” and the UK entry is “ND (^ <4%)”.

Take `CNC1CCc2cc(C(F)(F)F)sc2C1` (single isomer, unassigned) [Compound 39, N-methyl-2-(trifluoromethyl)-4,5,6,7-tetrahydrobenzothiophen-6-amine]: for the setting “dose having 45% or more total activity in SmartCube, if only one dose was tested”, the “MED (minimal effective dose)” value was determined as 3.0 mpk. For the same molecule, under setting [2], the AG result is listed as “ND (^ <4%)”, the AN result is reported as “ND (^ <4%)”, the AX entry is reported as “ND (^ <4%)” and the CE result was “ND (^ <4%)”. In addition, under setting [2], the HL result is listed as “ND (^ <4%)”, the MS result was “ND (^ <4%)”, the PS result is recorded as “ND (^ <4%)” and the SH result is “ND (^ <4%)”. Further, under setting [7], the AD result is on record as “+++ (≥49%)”, the AP result is “++ (≥24%)” and the UK entry is “ND (^ <4%)”.

For `CNC1(C)CCc2scc(F)c2C1` (stereo not drawn) [Compound 182, 3-fluoro-N, 5-dimethyl-6,7-dihydro-4H-benzothiophen-5-amine hydrochloride], under setting [4], the minimal effective dose was 3 mg/kg. Under setting [5], the AD result was “ND (^ <4%)”, the AG result is recorded as “ND (^ <4%)”, the AN result is on record as “ND (^ <4%)” and the AP entry is “ND (^ <4%)”. Under setting [5], the AX result is “ND (^ <4%)”, the CE entry is recorded as “ND (^ <4%)”, the HL result is “ND (^ <4%)” and the MS entry is reported as “ND (^ <4%)”. Further, under setting [5], the PS entry is reported as “+ (≥4%)”, the SH entry is on record as “+ (≥4%)” and the UK entry is on record as “++ (≥24%)”.

As for `CNC1CCc2sc(F)c(C)c2C1` (stereo not drawn) [Compound 142, 2-fluoro-N, 3-dimethyl-4,5,6,7-tetrahydrobenzothiophen-5-amine hydrochloride], under setting [4], the minimal effective dose stood at 1 mg/kg. Further, under setting [5], the AD result is listed as “+ (≥4%)”, the AG entry was “ND (^ <4%)”, the AN result is “++ (≥24%)” and the AP entry is reported as “+ (≥4%)”. Moreover, under setting [5], the AX result was “ND (^ <4%)”, the CE entry was “ND (^ <4%)”, the HL entry was “ND (^ <4%)” and the MS result is given as “ND (^ <4%)”. In addition, under setting [5], the PS entry was “+ (≥4%)”, the SH result was “ND (^ <4%)” and the UK entry is on record as “+ (≥4%)”.

Take `CNC1CCc2c(csc2C(F)(F)F)C1` (single isomer, unassigned) [Compound 64, N-methyl-1-(trifluoromethyl)-4,5,6,7-tetrahydro-2-benzothiophen-5-amine hydrochloride]: for the setting “dose having 45% or more total activity in SmartCube, if only one dose was tested, hydrochloride”, the “MED (minimal effective dose)” value was found to be 10 mpk. For the same molecule, under setting [2], the AD result was “+ (≥4%)”, the AG result is on record as “ND (^ <4%)”, the AN result is recorded as “ND (^ <4%)” and the AP entry is on record as “ND (^ <4%)”. Under setting [2], the CE entry was “ND (^ <4%)”, the HL result was “ND (^ <4%)”, the PS entry is “ND (^ <4%)” and the SH entry is “ND (^ <4%)”. Further, under setting [8], the AX entry is “ND (^ <4%)”, the MS entry is given as “ND (^ <4%)” and the UK result was “++ (≥24%)”.

Turning to `CN(C)C1CCc2cscc2C1.Cl` (single isomer, unassigned) [Compound 157, N,N-dimethyl-4,5,6,7-tetrahydro-2-benzothiophen-5-amine hydrochloride], under setting [5], the AD result is “ND (^ <4%)”, the AG entry was “ND (^ <4%)”, the AN result is “ND (^ <4%)” and the AP result is given as “ND (^ <4%)”. Under setting [5], the CE entry is “ND (^ <4%)”, the HL result is given as “ND (^ <4%)”, the MS entry is recorded as “ND (^ <4%)” and the PS result was “ND (^ <4%)”. Under setting [5], the SH result is listed as “ND (^ <4%)”. Also, under setting [6], the AX result is recorded as “+++ (≥49%)” and the UK result is “ND (^ <4%)”. For the same molecule, the MED (minimal effective dose: dose having 45% or more total activity in SmartCube, if only one dose tested) is 3 mpk.

Consider `CNC1CCc2scc(C(F)(F)F)c2C1.Cl` (single isomer, unassigned) [Compound 195, N-methyl-3-(trifluoromethyl)-4,5,6,7-tetrahydrobenzothiophen-5-amine hydrochloride], for which, under setting [5], the AD entry is on record as “ND (^ <4%)”, the AG entry is listed as “ND (^ <4%)”, the AN result was “ND (^ <4%)” and the AX entry is on record as “ND (^ <4%)”. Further, under setting [5], the CE entry was “ND (^ <4%)”, the HL entry is “ND (^ <4%)”, the MS entry is on record as “ND (^ <4%)” and the PS entry is recorded as “ND (^ <4%)”. For the same molecule, the SH entry under setting [5] was “ND (^ <4%)”. Besides, under setting [6], the AP result was “ND (^ <4%)” and the UK entry is reported as “+ (≥4%)”. Also, the MED (minimal effective dose: dose having 45% or more total activity in SmartCube, if only one dose tested, hydrochloride) was greater than 3 mpk.
